Results published in patent US20230167073A1 (Teijin Pharma Limited, priority 2020, published 2023).

The compounds below were run against T1, Human TRPC6 (Homo sapiens, UniProt Q9Y210) (assay: Evaluation of TRPC6 channel inhibitory activity (2), HEK293 cells with stably introduced human TRPC6, OAG stimulation, FLIPR tetra (Compound Nos. 1293 to 1405)). Conditions: HEK293 cells with stably introduced human TRPC6, OAG 50 μM/0.5% DMSO, read-out: Inhibitory activity (pIC50 class) (converted).
T1 construct: expressed in transfected cells
T1 sequence (Q9Y210 1-931): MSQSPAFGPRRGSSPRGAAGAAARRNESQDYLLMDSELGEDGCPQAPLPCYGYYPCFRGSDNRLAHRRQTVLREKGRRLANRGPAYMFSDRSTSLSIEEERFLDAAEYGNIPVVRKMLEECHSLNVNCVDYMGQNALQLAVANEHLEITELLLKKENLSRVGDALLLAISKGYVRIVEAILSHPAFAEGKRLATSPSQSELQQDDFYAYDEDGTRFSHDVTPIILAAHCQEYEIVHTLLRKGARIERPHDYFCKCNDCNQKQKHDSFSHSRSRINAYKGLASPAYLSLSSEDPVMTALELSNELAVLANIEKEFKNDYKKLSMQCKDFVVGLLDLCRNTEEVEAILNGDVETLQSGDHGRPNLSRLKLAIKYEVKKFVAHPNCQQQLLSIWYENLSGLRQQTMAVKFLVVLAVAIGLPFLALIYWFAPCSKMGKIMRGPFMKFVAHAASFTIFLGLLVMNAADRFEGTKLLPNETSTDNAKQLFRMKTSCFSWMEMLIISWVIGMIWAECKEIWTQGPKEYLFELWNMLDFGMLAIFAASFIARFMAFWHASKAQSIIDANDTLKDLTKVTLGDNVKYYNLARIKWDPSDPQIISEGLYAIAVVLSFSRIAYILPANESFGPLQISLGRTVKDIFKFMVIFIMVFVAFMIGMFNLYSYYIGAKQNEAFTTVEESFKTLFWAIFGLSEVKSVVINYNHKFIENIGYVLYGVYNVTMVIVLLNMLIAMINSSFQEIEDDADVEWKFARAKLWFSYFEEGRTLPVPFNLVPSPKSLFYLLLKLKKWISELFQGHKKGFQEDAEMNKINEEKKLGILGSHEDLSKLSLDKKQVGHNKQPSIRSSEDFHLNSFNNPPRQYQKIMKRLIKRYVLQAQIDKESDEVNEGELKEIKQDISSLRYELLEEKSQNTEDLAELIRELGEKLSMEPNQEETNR
Type: cell-based
Procedure: Evaluation of TRPC6 Channel Inhibitory Activity (2) (Compound Nos. 1293 to 1405)
The activity of the TRPC6 inhibitor was measured by stimulating HEK293 cells, in which human TRPC6 was stably introduced, with OAG (1-Oleoyl-2-acetyl-sn-glycerol, Miliipore Sigma, 06754), using the FLIPR tetra system. The cells were proliferated in a humid environment at 37° C. 5% CO2 using a growth medium (DMEM (Dulbecco's Modified Eagle's Medium) high glucose containing 10% fetal bovine serum, 1×PSGlu (penicillin-streptomycin glutamine), 1×NEAA (Non-essential amino acid), sodium pyruvate and 200 μg/mL hyglomycin. For cell subculture, the cells were proliferated to 70-90% confluence, and gently washed twice with PBS (phosphate-buffered saline) free of calcium and magnesium after removing the medium. Then, the cells were incubated at 37° C. for 5 minutes after adding trypsin (3 mL), peeled off by tapping the flask at the base of the hand, 7 mL of growth medium was added to inactivate trypsin, and then the cells were resuspended. Usually, the cells were separated every 2-3 days to become a cell density of ⅕. The day before evaluation, the cells were seeded in a poly-D-lysine (PDL) coated 384-well plate using a multi-channel pipette or multidrop at a cell density of 1.0-1.5×10^4 cells/25 μL/well. After culturing overnight in a PDL-coated 384 Blackwell plate, a fluorescent dye buffer was added first to the cells and the cells were cultured at room temperature for 90-120 minutes. For preparing 10 mL of fluorescent dye buffer, 9 mL of assay buffer, 1 mL of 10×PBX signal enhancer, and 10 μL of calcium indicator were mixed. Cells treated with the compounds of each level 25 minutes before the stimulation with OAG of TRPC6 agonist were incubated. OAG solution was prepared by adding OAG to assay buffer (Ca ringer solution base: 10 mM HEPES (4-(2-hydroxyethyl)-1-piperazine-ethanesulfonic acid), 4 mM MgCl2, 120 mM NaCl, 5 mM KCl, pH=7.2 (25° C.)+0.1% BSA+2 mM CaCl2)) to give an OAG concentration of 0.2 mM/2% DMSO. The final concentration of OAG added to the cells is 50 μM/0.5% DMSO. A volume of 12.5 μL of OAG solution was added, and activation of TRPC6 channel was measured using the FLIPR tetra system assaying the change in intracellular calcium level as an index. The 180 seconds imaging frame was defined as the background signal, and the subtraction of the background signal from the raw data was used as the fluorescence peak signal. Each fluorescence peak signal is standardized using an OAG-induced signal and buffer-induced signal as 100% and 0%, respectively. The inhibition rate obtained by plotting the peak signal after the addition of the compounds of each level was analyzed by a four-parameter logistic regression to quantify the inhibition rate in the logarithm of the inverse of the effective concentration which gives a 50% inhibition rate (pIC50). The intensity was expressed by the above-mentioned symbols (+, ++, +++).

Structure (SMILES) | IC50
Cn1nc([C@H]2CCOC2)cc1Oc1cc(Cl)ccc1-c1ncc([C@H](F)CN)cn1 [compound 1344, (2S)-2-[2-[4-chloro-2-[2-methyl-5-[(3R)-oxolan-3-yl]pyrazol-3-yl]oxyphenyl]pyrimidin-5-yl]-2-fluoroethanamine] | > 1000 nM
Cn1nc([C@H]2CCOC2)cc1Oc1cc(Cl)ccc1-c1ccc(CN)cn1 [compound 1345, [6-[4-chloro-2-[2-methyl-5-[(3R)-oxolan-3-yl]pyrazol-3-yl]oxyphenyl]pyridin-3-yl]methanamine] | 10 to 1000 nM
Cn1nc(C2CC2)cc1Oc1cc(Cl)ccc1-c1ccc(CN)cn1 [compound 1346, [6-[4-chloro-2-(5-cyclopropyl-2-methylpyrazol-3-yl)oxyphenyl]pyridin-3-yl]methanamine] | < 10 nM
Cn1nc(C2CC2)cc1Oc1cc(Cl)ccc1-c1ncc([C@H](F)CN)cn1 [compound 1347, (2S)-2-[2-[4-chloro-2-(5-cyclopropyl-2-methylpyrazol-3-yl)oxyphenyl]pyrimidin-5-yl]-2-fluoroethanamine] | 10 to 1000 nM
Cn1nc(C2CC2)cc1Oc1cc(Cl)ccc1-c1ncc([C@@H](F)CN)cn1 [compound 1348, (2R)-2-[2-[4-chloro-2-(5-cyclopropyl-2-methylpyrazol-3-yl)oxyphenyl]pyrimidin-5-yl]-2-fluoroethanamine] | < 10 nM
Cc1cc(Oc2cc(Cl)ccc2-c2ncc([C@H](O)CN)cn2)cc(N2CCOCC2)n1 [compound 1349, (1S)-2-amino-1-[2-[4-chloro-2-(2-methyl-6-morpholin-4-ylpyridin-4-yl)oxyphenyl]pyrimidin-5-yl]ethanol] | 10 to 1000 nM
Cc1cc(Oc2cc(Cl)ccc2-c2ncc([C@@H](O)CN)cn2)cc(N2CCOCC2)n1 [compound 1350, (1R)-2-amino-1-[2-[4-chloro-2-(2-methyl-6-morpholin-4-ylpyridin-4-yl)oxyphenyl]pyrimidin-5-yl]ethanol] | < 10 nM
Cn1nc(-c2ccccn2)cc1Oc1cc(Cl)cnc1-c1ncc(CN)cn1 [compound 1351, [2-[5-chloro-3-(2-methyl-5-pyridin-2-ylpyrazol-3-yl)oxypyridin-2-yl]pyrimidin-5-yl]methanamine] | > 1000 nM
Cn1nc([C@H]2CCOC2)cc1Oc1cc(Cl)ccc1-c1ncc([C@@H](F)CN)cn1 [compound 1352, (2R)-2-[2-[4-chloro-2-[2-methyl-5-[(3R)-oxolan-3-yl]pyrazol-3-yl]oxyphenyl]pyrimidin-5-yl]-2-fluoroethanamine] | 10 to 1000 nM
Cn1nc(-c2ccccn2)cc1Oc1cc(Cl)cnc1-c1ccc([C@@H](F)CN)cn1 [compound 1353, (2R)-2-[6-[5-chloro-3-(2-methyl-5-pyridin-2-ylpyrazol-3-yl)oxypyridin-2-yl]pyridin-3-yl]-2-fluoroethanamme] | 10 to 1000 nM
Cn1nc(-c2ccccn2)cc1Oc1cc(Cl)cnc1-c1ccc([C@H](F)CN)cn1 [compound 1354, (2S)-2-[6-[5-chloro-3-(2-methyl-5-pyridin-2-ylpyrazol-3-yl)oxypyridin-2-yl]pyridin-3-yl]-2-fluoroethanamine] | < 10 nM
Cn1nc(C2CC2)cc1Oc1cc(Cl)ccc1-c1ncc(CN)cn1 [compound 1355, [2-[4-chloro-2-(5-cyclopropyl-2-methylpyrazol-3-yl)oxyphenyl]pyrimidin-5-yl]methanamine] | 10 to 1000 nM
Cn1nc([C@@H]2CCOC2)cc1Oc1cc(Cl)ccc1-c1ncc(CN)cn1 [compound 1356, [2-[4-chloro-2-[2-methyl-5-[(3S)-oxolan-3-yl]pyrazol-3-yl]oxyphenyl]pyrimidin-5-yl]methanamine] | 10 to 1000 nM
Cn1nc(-c2ccccn2)cc1Oc1cc(Cl)ccc1-c1ncc([C@@H](O)CN)cn1 [compound 1357, (1R)-2-amino-1-[2-[4-chloro-2-(2-methyl-5-pyridin-2-ylpyrazol-3-yl)oxyphenyl]pyrimidin-5-yl]ethanol] | < 10 nM
Cn1nc(-c2ccccn2)cc1Oc1cc(Cl)ccc1-c1ncc([C@H](O)CN)cn1 [compound 1358, (1S)-2-amino-1-[2-[4-chloro-2-(2-methyl-5-pyridin-2-ylpyrazol-3-yl)oxyphenyl]pyrimidin-5-yl]ethanol] | 10 to 1000 nM
Cn1nc(C2CCOCC2)cc1Oc1cc(Cl)ccc1-c1ncc([C@H](F)CN)cn1 [compound 1359, (2S)-2-[2-[4-chloro-2-[2-methyl-5-(oxan-4-yl)pyrazol-3-yl]oxyphenyl]pyrimidin-5-yl]-2-fluoroethanamine] | 10 to 1000 nM
Cn1nc(C2CCOCC2)cc1Oc1cc(Cl)ccc1-c1ncc([C@@H](F)CN)cn1 [compound 1360, (2R)-2-[2-[4-chloro-2-[2-methyl-5-(oxan-4-yl)pyrazol-3-yl]oxyphenyl]pyrimidin-5-yl]-2-fluoroethanamine] | < 10 nM
Cn1nc(C2CCOCC2)cc1Oc1cc(Cl)ccc1-c1ccc(CN)cn1 [compound 1361, [6-[4-chloro-2-[2-methyl-5-(oxan-4-yl)pyrazol-3-yl]oxyphenyl]pyridin-3-yl]methanamine] | < 10 nM
Cn1nc(C2CCOCC2)cc1Oc1cc(Cl)ccc1-c1ncc(CN)cn1 [compound 1362, [2-[4-chloro-2-[2-methyl-5-(oxan-4-yl)pyrazol-3-yl]oxyphenyl]pyrimidin-5-yl]methanamine] | 10 to 1000 nM
Cn1nc(-c2ccccn2)cc1Oc1cc(Cl)ccc1-c1ccc([C@@H](N)CO)cn1 [compound 1363, (2R)-2-amino-2-[6-[4-chloro-2-(2-methyl-5-pyridin-2-ylpyrazol-3-yl)oxyphenyl]pyridin-3-yl]ethanol] | > 1000 nM
Cn1nc(-c2ccccc2)nc1Oc1cc(Cl)ccc1-c1ncc(CN)cn1 [compound 1364, [2-[4-chloro-2-[(2-methyl-5-phenyl 1,2,4-triazol-3-yl)oxy]phenyl]pyrimidin-5-yl]methanamine] | > 1000 nM
Cn1nc(-c2ccccc2)nc1Oc1cc(Cl)ccc1-c1ncc(CCN)cn1 [compound 1365, 2-[2-[4-chloro-2-[(2-methyl-5-phenyl-1,2,4-triazol-3-yl)oxy]phenyl]pyrimidin-5-yl]ethanamine] | > 1000 nM
Cn1nc(C2CC2)cc1Oc1cc(C#N)ccc1-c1ncc([C@@H](F)CN)cn1 [compound 1366, 4-[5-[(1R)-2-amino-1-fluoroethyl]pyrimidin-2-yl]-3-(5-cyclopropyl-2-methylpyrazol-3-yl)oxybenzonitrile] | < 10 nM
Cn1nc(C2CC2)cc1Oc1cc(C#N)ccc1-c1ncc([C@H](F)CN)cn1 [compound 1367, 4-[5-[(1S)-2-amino-1-fluoroethyl]pyrimidin-2-yl]-3-(5-cyclopropyl-2-methylpyrazol-3-yl)oxybenzonitrile] | < 10 nM
